Measured values: PubChem BioAssay (NCI)
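GI50 = concentration required for 50% inhibition of growth. TGI denotes the concentration required for complete inhibition of growth.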

Columns and labels:
Assay in all cases: NCI tumour cell line growth inhibition, 384-well format
[1] = tested on: 786-0 renal
[2] = tested on: A498 renal
[3] = tested on: ACHN renal
[4] = tested on: BT-549 breast
[5] = tested on: CAKI-1 renal
[6] = tested on: CCRF-CEM leukemia
[7] = tested on: COLO 205 colon
[8] = tested on: DU-145 prostate
[9] = tested on: EKVX NSCLC
[10] = tested on: HCC-2998 colon
[11] = tested on: HCT-116 colon
[12] = tested on: HCT-15 colon
[13] = tested on: HL-60(TB) leukemia
[14] = tested on: HOP-62 NSCLC
[15] = tested on: HOP-92 NSCLC
[16] = tested on: HS 578T breast
[17] = tested on: HT29 colon
[18] = tested on: KM12 colon
[19] = tested on: LOX IMVI melanoma
[20] = tested on: M14 melanoma
[21] = tested on: MALME-3M melanoma
[22] = tested on: MCF7 breast
[23] = tested on: MDA-MB-231 breast
[24] = tested on: MDA-MB-435 melanoma
[25] = tested on: MDA-MB-468 breast
[26] = tested on: NCI-H226 lung
[27] = tested on: NCI-H23 lung
[28] = tested on: NCI-H322M lung
[29] = tested on: NCI-H460 NSCLC
[30] = tested on: NCI-H522 lung
[31] = tested on: NCI/ADR-RES ovarian
[32] = tested on: OVCAR-3 ovarian
[33] = tested on: OVCAR-4 ovarian
[34] = tested on: OVCAR-8 ovarian
[35] = tested on: PC-3 prostate
[36] = tested on: RPMI-8226 leukemia
[37] = tested on: RXF 393 renal
[38] = tested on: SF-268 CNS
[39] = tested on: SF-295 CNS
[40] = tested on: SF-539 CNS
[41] = tested on: SK-MEL-28 melanoma
[42] = tested on: SK-MEL-5 melanoma
[43] = tested on: SK-OV-3 ovarian
[44] = tested on: SN12C renal
[45] = tested on: SNB-19 CNS
[46] = tested on: SNB-75 CNS
[47] = tested on: SR leukemia
[48] = tested on: SW-620 colon
[49] = tested on: T-47D breast
[50] = tested on: TK-10 renal
[51] = tested on: U251 glioblastoma
[52] = tested on: UACC-257 melanoma
[53] = tested on: UACC-62 melanoma
[54] = tested on: UO-31 renal

## COc1cc(Nc2ncc(F)c(Nc3ccc4c(n3)NC(=O)C(C)(C)O4)n2)cc(OC)c1OC
[1]
  GI50: 16.3 µM
  TGI: > 100 µM
[2]
  GI50: 20.6 µM
  TGI: > 100 µM
[3]
  GI50: 1.6 µM
  TGI: > 100 µM
[4]
  GI50: 4.37 µM
  TGI: > 100 µM
[5]
  GI50: 0.445 µM
  TGI: > 100 µM
[6]
  GI50: 9.52 µM
  TGI: > 100 µM
[7]
  GI50: 4.34 µM
  TGI: 29.8 µM
[8]
  GI50: 14.6 µM
  TGI: > 100 µM
[9]
  GI50: 0.808 µM
  TGI: > 100 µM
[10]
  GI50: 14.7 µM
  TGI: > 100 µM
[11]
  GI50: > 100 µM
  TGI: > 100 µM
[12]
  GI50: 4.36 µM
  TGI: > 100 µM
[13]
  GI50: 3.37 µM
  TGI: 8.28 µM
[14]
  GI50: 5.75 µM
  TGI: 31.7 µM
[15]
  GI50: 15.4 µM
  TGI: > 100 µM
[16]
  GI50: 0.805 µM
  TGI: 18.4 µM
[17]
  GI50: 10.6 µM
  TGI: > 100 µM
[18]
  GI50: 0.346 µM
  TGI: > 100 µM
[19]
  GI50: 6.19 µM
  TGI: > 100 µM
[20]
  GI50: 24.7 µM
  TGI: > 100 µM
[21]
  GI50: 29.5 µM
  TGI: > 100 µM
[22]
  GI50: 3.9 µM
  TGI: > 100 µM
[23]
  GI50: 2.58 µM
  TGI: 97 µM
[24]
  GI50: 9.68 µM
  TGI: > 100 µM
[25]
  GI50: 5.78 µM
  TGI: > 100 µM
[26]
  GI50: 0.319 µM
  TGI: 13.2 µM
[27]
  GI50: 0.538 µM
  TGI: > 100 µM
[28]
  GI50: 4.17 µM
  TGI: > 100 µM
[29]
  GI50: 11.3 µM
  TGI: > 100 µM
[30]
  GI50: 0.7 µM
  TGI: 13.1 µM
[31]
  GI50: 13.4 µM
  TGI: > 100 µM
[32]
  GI50: 6.28 µM
  TGI: > 100 µM
[33]
  GI50: 16.4 µM
  TGI: > 100 µM
[34]
  GI50: 4.11 µM
  TGI: 19.7 µM
[35]
  GI50: 8.94 µM
  TGI: > 100 µM
[36]
  GI50: > 100 µM
  TGI: > 100 µM
[37]
  GI50: 0.516 µM
  TGI: 30.9 µM
[38]
  GI50: 2.55 µM
  TGI: 47.4 µM
[39]
  GI50: 3.65 µM
  TGI: > 100 µM
[40]
  GI50: 1.24 µM
  TGI: 17.8 µM
[41]
  GI50: 43.8 µM
  TGI: > 100 µM
[42]
  GI50: 7.41 µM
  TGI: > 100 µM
[43]
  GI50: 0.371 µM
  TGI: > 100 µM
[44]
  GI50: 0.258 µM
  TGI: > 100 µM
[45]
  GI50: 28.5 µM
  TGI: > 100 µM
[46]
  GI50: 1.17 µM
  TGI: 28 µM
[47]
  GI50: 1.27 µM
  TGI: 2.72 µM
[48]
  GI50: > 100 µM
  TGI: > 100 µM
[49]
  GI50: 52.6 µM
  TGI: > 100 µM
[50]
  GI50: > 100 µM
  TGI: > 100 µM
[51]
  GI50: 38.9 µM
  TGI: > 100 µM
[52]
  GI50: > 100 µM
  TGI: > 100 µM
[53]
  GI50: > 100 µM
  TGI: > 100 µM
[54]
  GI50: 55.1 µM
  TGI: > 100 µM
